Source: patent US11780851B2, “LRRK2 inhibitors” (H. Lundbeck A/S, priority 2021, dated 2023)
Like-named read-outs stand apart in the source and are kept apart here.

Tests used:
[1] = Free fraction in plasma (equilibrium dialysis); format: in vitro ADME, male Sprague-Dawley rat; conditions: rat plasma, 1 μM, 5 h at 37° C.
Method: The free fractions in male Sprague-Dawley rat or female Gottingen minipig plasma (fuplasma) and rat brain homogenate (fubrain) were determined by equilibrium dialysis using 96-well HTD-dialysis plates with dialysis membranes (molecular weight cut off 12-14 KDa). One side of the HTD-dialysis plate was loaded with matrix (plasma or brain homogenate) and the other side with buffer (100 mM sodium phosphate buffer, pH 7.4). Test compounds were dissolved in DMSO then spiked (5 μL of 0.2 mM) into blank (995 μL) plasma or diluted brain homogenate (1:4 ratio in phosphate buffer) giving a final nominal concentration 1 μM (≤0.5% DMSO). The matrices were loaded into respective chambers and equilibrated against phosphate buffer for 5 h at 37° C. (in a humidified air incubator with 5% CO2 with shaking). Samples from both chambers (buffer and plasma or brain homogenate) were aliquoted to fresh 96-well polypropylene plates then matrix matched using an equal volume of opposite blank matrix before extraction with cold solvent (3 volumes acetonitrile) containing an appropriate bioanalytical internal standard. After centrifugation (20 min, 3200 g, 4° C.) the supernatants were diluted with appropriate volumes of water and compound concentrations were quantified by LC/MS-MS against matrix matched calibration standards. The fuplasma and fubrain were calculated as a percent free according to equation 4 below.
Where [F] is the analyte concentration on the buffer (receiver) side of the membrane; [T] is the analyte concentration on the plasma or brain (donor) side of the membrane; [TO] is the analyte concentration in the plasma or brain sample at time zero; D is matrix dilution factor which is determined as 4 for brain matrix and 1 for plasma matrix in these assays.

[2] = Rat B/P (brain disposition); format: in vivo, male Sprague-Dawley rats; conditions: male, Sprague-Dawley; for concentration at 0.5 h / Kp uu at 0.5 h / Kp at 0.5 h: time point 0.5 h; for concentration at 0.5 h / Kp at 0.5 h / concentration at 1 h / Kp at 1 h: mean ± stdev; for Kp uu at 0.5 h / Kp at 0.5 h / Kp uu at 1 h / Kp at 1 h: brain/plasma; for Kp uu at 0.5 h / Kp uu at 1 h: fubrain from brain homogenate; for Kp at 0.5 h / Kp at 1 h: n = 3; for concentration at 1 h / Kp uu at 1 h / Kp at 1 h: time point 1.0 h
Method: Brain disposition was evaluated for each compound in male Sprague-Dawley rats (n=3, standard body weight). […] Isolated plasma and brain homogenates were extracted by standard protein precipitation in acetonitrile, containing internal standard, followed by LC-MS/MS analysis using an optimized analytical method. Concentrations of test compound in plasma and brain were quantified against matrix matched calibration standards. The total plasma and brain concentration data are presented in Table 7 alongside the calculated brain Kp (total brain concentration:total plasma concentration ratio).

LRRK2 G2019S = biological target: T1, LRRK2 G2019S (Homo sapiens, UniProt Q5S007, G2019S); experiment: LRRK2 G2019S kinase activity assay (LanthaScreen TR-FRET); format: biochemical; conditions: 250 pM LRRK2 G2019S, 1.3 mM ATP, 3 h at 30° C.; n≥2 tests
T1 construct: purchased Invitrogen (Life Technologies Corporation)
T1 sequence (Q5S007 970-2527 G2019S): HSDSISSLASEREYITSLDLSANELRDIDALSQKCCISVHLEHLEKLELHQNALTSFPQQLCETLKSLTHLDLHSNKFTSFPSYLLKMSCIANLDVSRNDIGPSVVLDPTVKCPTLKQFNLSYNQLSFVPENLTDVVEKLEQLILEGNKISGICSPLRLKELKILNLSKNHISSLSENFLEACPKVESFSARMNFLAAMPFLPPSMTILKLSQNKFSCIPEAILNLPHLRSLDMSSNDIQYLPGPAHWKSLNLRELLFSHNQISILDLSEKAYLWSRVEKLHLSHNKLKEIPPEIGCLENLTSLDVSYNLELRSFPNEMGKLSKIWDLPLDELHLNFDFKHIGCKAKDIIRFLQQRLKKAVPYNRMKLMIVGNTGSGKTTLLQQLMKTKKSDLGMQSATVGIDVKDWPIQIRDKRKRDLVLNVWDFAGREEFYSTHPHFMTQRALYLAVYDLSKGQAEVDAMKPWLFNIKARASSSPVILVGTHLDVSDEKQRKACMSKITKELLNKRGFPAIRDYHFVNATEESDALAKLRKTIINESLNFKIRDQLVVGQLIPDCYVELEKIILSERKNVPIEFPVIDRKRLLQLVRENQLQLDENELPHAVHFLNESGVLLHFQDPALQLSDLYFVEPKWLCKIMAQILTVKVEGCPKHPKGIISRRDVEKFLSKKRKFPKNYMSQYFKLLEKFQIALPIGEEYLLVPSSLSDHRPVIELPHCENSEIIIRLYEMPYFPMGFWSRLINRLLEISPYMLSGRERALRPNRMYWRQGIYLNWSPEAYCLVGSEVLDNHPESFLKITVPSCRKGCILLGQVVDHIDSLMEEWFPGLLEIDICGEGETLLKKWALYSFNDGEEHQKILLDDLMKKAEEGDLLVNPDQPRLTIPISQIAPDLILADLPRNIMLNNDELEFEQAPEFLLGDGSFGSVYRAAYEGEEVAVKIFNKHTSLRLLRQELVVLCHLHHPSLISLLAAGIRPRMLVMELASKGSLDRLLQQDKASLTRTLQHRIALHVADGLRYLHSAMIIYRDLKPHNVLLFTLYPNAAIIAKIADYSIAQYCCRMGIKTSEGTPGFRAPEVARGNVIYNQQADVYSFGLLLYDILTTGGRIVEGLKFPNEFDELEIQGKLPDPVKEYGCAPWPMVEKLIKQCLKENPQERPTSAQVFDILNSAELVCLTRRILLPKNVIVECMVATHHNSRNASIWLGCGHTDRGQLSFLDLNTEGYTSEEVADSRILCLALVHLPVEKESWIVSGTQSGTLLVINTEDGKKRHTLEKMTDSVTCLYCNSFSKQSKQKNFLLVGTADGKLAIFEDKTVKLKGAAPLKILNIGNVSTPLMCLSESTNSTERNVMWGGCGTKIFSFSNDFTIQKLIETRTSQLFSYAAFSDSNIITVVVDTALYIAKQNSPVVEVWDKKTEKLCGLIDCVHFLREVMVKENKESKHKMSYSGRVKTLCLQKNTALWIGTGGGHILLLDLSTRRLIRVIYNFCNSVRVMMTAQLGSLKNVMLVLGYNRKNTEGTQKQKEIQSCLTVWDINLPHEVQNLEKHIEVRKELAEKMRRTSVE
Method: (§1) LRRK2 kinase activity was measured using a LanthaScreen kinase activity assay available from Invitrogen (Life Technologies Corporation). The assay is a homogeneous time resolved-fluorescence resonance energy transfer (TR-FRET) assay that measures phosphorylation of a fluorescein-labelled peptide substrate Fluorescein-ERM LRRKtide obtainable from Life Technologies Corporation as a result of LRRK2 kinase activity. The phosphorylated peptide is recognized by a terbium-labelled phospho-specific anti-LRRKtide antibody (pLRRKtide antibody), obtainable from Life Technologies Corporation and, subsequently, the phosphorylated LRRKtide can be quantified by the extent of TR-FRET between the terbium donor and fluorescein acceptor. The LRRK2 kinase was obtained from Invitrogen (Life Technologies Corporation) and comprises residue 970 to 2527 of the full length human wild-type LRRK2 kinase, or a similar sequence with the G2019S mutation. As discussed above, this mutation increases the kinase activity relative to the wild type. The kinase reactions were performed in a 20 μL volume in 384-well plates. […] The mixture was further incubated for 30 minutes at RT. […] The measurement was repeated 30 times for fluorescein and 30 times for terbium emission with a 1000 μs time window between repeats. TR-FRET measurements were performed on a Biotek Synergy plate. The TR-FRET signal was calculated as the emission-ratio at 520 nm over 495 nm. The TR-FRET ratio readout for test compounds was normalized to 0% inhibition corresponding to TR-FRET ratio measured in control wells with no inhibition of the kinase activity and 100% inhibition corresponding to TR-FRET ratio measured in control wells with inhibitor. […] C is the IC50 value and D is the Hill slope coefficient. IC50 estimates were obtained from independent experiment and the logarithmic average was calculated.

LRRK2 WT = biological target: T2, LRRK2 WT (Homo sapiens, UniProt Q5S007); experiment: LRRK2 wild-type kinase activity assay (LanthaScreen TR-FRET); format: biochemical; conditions: 1 nM LRRK2 WT, 1.3 mM ATP, 3.5 h at 30° C.; n≥2 tests
T2 construct: comprises residue 970 to 2527 of the full length human wild-type LRRK2 kinase; purchased Invitrogen (Life Technologies Corporation)
T2 sequence (Q5S007 970-2527): as the sequence (Q5S007 970-2527 G2019S) above, with S1050G counted along it
Method: as §1

[3] = brain, oral gavage 5 mg/kg, n = 3, read-out: Total brain concentration
[4] = plasma, oral gavage 5 mg/kg, n = 3, read-out: Total plasma concentration
[5] = brain, oral gavage 10 mg/kg, n = 3, read-out: Total brain concentration
[6] = po, 10 mg/kg, oral gavage 10 mg/kg
[7] = plasma, oral gavage 10 mg/kg, n = 3, read-out: Total plasma concentration

Row | fuplasma (% free) [1] [% free] | IC50 (LRRK2 G2019S) [nM] | IC50 (LRRK2 WT) [nM] | SMILES | other results
1 | 12.7 | 12 | 28 | Cc1c2c(nn1[C@@H]1CC1(F)F)OCCCn1nc(Cl)c3cnc(nc31)N2 (single isomer, unassigned) [Example 40, (+)-(R) or (S)-8-Chloro-2-(2,2-difluorocyclopropyl)-3-methyl-2,4,12,13-tetrahydro-11H-5,7-(azenometheno)dipyrazolo[3,4-b:5′,1′-g][1]oxa[4,6,8]triazacycloundecine] | concentration at 0.5 h [2, 3]: 138 ± 12 ng/g; Kp uu at 0.5 h ([2]; oral gavage 5 mg/kg): 0.72 ± 0.08; Kp at 0.5 h ([2]; oral gavage 5 mg/kg): 1.93 ± 0.22; concentration at 0.5 h [2, 4]: 72 ± 8 ng/mL
2 | 24.8 | 3.1 | 13 | Cc1c2c(nn1[C@H]1CCOC[C@]1(C)F)OCCCn1nc(Cl)c3cnc(nc31)N2 (single isomer, unassigned) [Example 47, (+)-8-Chloro-2-((3R,4S) or (3S,4R)-3-Fluoro-3-methyltetrahydro-2H-pyran-4-yl)-3-methyl-2,4,12,13-tetrahydro-11H-5,7-(azenometheno)dipyrazolo[3,4-b:5′,1′-g][1]oxa[4,6,8]triazacycloundecine] | concentration at 0.5 h [2, 3]: 235 ± 119 ng/g; Kp uu at 0.5 h ([2]; oral gavage 5 mg/kg): 0.57 ± 0.17; Kp at 0.5 h ([2]; oral gavage 5 mg/kg): 2.69 ± 0.83; concentration at 0.5 h [2, 4]: 83 ± 27 ng/mL
3 | 17.1 | 1.3 | 3.2 | Cc1c2c(nn1[C@@H]1CCOC3(CC3)C1)OCCCn1nc(Cl)c3cnc(nc31)N2 (single isomer, unassigned) [Example 53, (+)-(R) or (S)-8-Chloro-3-methyl-2-(4-oxaspiro[2.5]octan-7-yl)-2,4,12,13-tetrahydro-11H-5,7-(azenometheno)dipyrazolo[3,4-b:5′,1′-g][1]oxa[4,6,8]triazacycloundecine] | concentration at 1 h [2, 3]: 363 ± 138 ng/g; Kp uu at 1 h ([2]; oral gavage 5 mg/kg): 0.65 ± 0.06; Kp at 1 h ([2]; oral gavage 5 mg/kg): 1.77 ± 0.16; concentration at 1 h [2, 4]: 203 ± 67 ng/mL
4 | 32.2 | 7.4 | 23 | Cc1c2c(nn1C1CCOCC1)OCCCn1nc(C(F)(F)F)c3cnc(nc31)N2 [Example 5, 3-Methyl-2-(tetrahydro-2H-pyran-4-yl)-8-(trifluoromethyl)-2,4,12,13-tetrahydro-11H-5,7-(azenometheno)dipyrazolo[3,4-b:5′,1′-g][1]oxa[4,6,8]triazacycloundecine] | concentration at 1 h [2, 5]: 744 ± 281 ng/g; Kp at 1 h ([2]; oral gavage 10 mg/kg): 2.19 ± 0.25; Kp uu at 1 h [2, 6]: 0.29 ± 0.03; concentration at 1 h [2, 7]: 336 ± 96 ng/mL
5 | 34.3 |  |  | Cc1c2c(nn1C1CCOCC1)OCCCn1nc(Br)c3cnc(nc31)N2 [Example 6, 8-Bromo-3-methyl-2-(tetrahydro-2H-pyran-4-yl)-2,4,12,13-tetrahydro-11H-5,7-(azenometheno)dipyrazolo[3,4-b:5′,1′-g][1]oxa[4,6,8]triazacycloundecine] | concentration at 1 h [2, 5]: 1460 ± 244 ng/g; Kp at 1 h ([2]; oral gavage 10 mg/kg): 1.97 ± 0.27; Kp uu at 1 h [2, 6]: 0.44 ± 0.06; concentration at 1 h [2, 7]: 738 ± 24 ng/mL
6 | 28.7 | 63 | 210 | Cc1c2c(nn1C1CCOCC1)OCCCn1nc(C3CC3)c3cnc(nc31)N2 [Example 7, 8-Cyclopropyl-3-methyl-2-(tetrahydro-2H-pyran-4-yl)-2,4,12,13-tetrahydro-11H-5,7-(azenometheno)dipyrazolo[3,4-b:5′,1′-g][1]oxa[4,6,8]triazacycloundecine] | concentration at 1 h [2, 5]: 949 ± 463 ng/g; Kp uu at 1 h ([2]; oral gavage 10 mg/kg): 0.28 ± 0.1; Kp at 1 h ([2]; oral gavage 10 mg/kg): 0.63 ± 0.23; concentration at 1 h [2, 7]: 1550 ± 527 ng/mL
7 |  | 5.9 | 21 | Cc1c2c(nn1C1CCC(F)(F)CC1)OCCCn1nc(Cl)c3cnc(nc31)N2 [Example 26, 8-Chloro-2-(4,4-difluorocyclohexyl)-3-methyl-2,4,12,13-tetrahydro-11H-5,7-(azenometheno)dipyrazolo[3,4-b:5′,1′-g][1]oxa[4,6,8]triazacycloundecine] | 
8 |  | 5.7 | 18 | Cc1c2c(nn1C1CC3(COC3)C1)OCCCn1nc(Cl)c3cnc(nc31)N2 [Example 34, 8-Chloro-3-methyl-2-(2-oxaspiro[3.3]heptan-6-yl)-2,4,12,13-tetrahydro-11H-5,7-(azenometheno)dipyrazolo[3,4-b:5′,1′-g][1]oxa[4,6,8]triazacycloundecine] | 
9 |  | 5.3 | 15 | [2H]C([2H])([2H])c1c2c(nn1C1CCOCC1)OC([2H])([2H])C([2H])([2H])C([2H])([2H])n1nc(Cl)c3cnc(nc31)N2 [Example 35, 8-Chloro-3-(methyl-d3)-2-(tetrahydro-2H-pyran-4-yl)-2,4,12,13-tetrahydro-11H-5,7-(azenometheno)dipyrazolo[3,4-b:5′,1′-g][1]oxa[4,6,8]triazacycloundecine-11,11,12,12,13,13-d6] | 
10 |  | 7.2 | 23 | Cc1c2c(nn1C1(C#N)CC1)OCCCn1nc(Cl)c3cnc(nc31)N2 [Example 36, 1-(8-Chloro-3-methyl-12,13-dihydro-11H-5,7-(azenometheno)dipyrazolo[3,4-b:5′,1′-g][1]oxa[4,6,8]triazacycloundecin-2(4H)-yl)cyclopropane-1-carbonitrile] | 
11 |  | 3.6 | 13 | [2H]C1([2H])CCOc2nn(C3CCOCC3)c(C)c2Nc2ncc3c(Cl)nn1c3n2 [Example 45, 8-Chloro-3-methyl-2-(tetrahydro-2H-pyran-4-yl)-2,4,12,13-tetrahydro-11H-5,7-(azenometheno)dipyrazolo[3,4-b:5′,1′-g][1]oxa[4,6,8]triazacycloundecine-11,11-d2] | 
12 |  | 3.1 | 12 | [2H]C1([2H])CCn2nc(Cl)c3cnc(nc32)Nc2c(nn(C3CCOCC3)c2C)O1 [Example 46, 8-Chloro-3-methyl-2-(tetrahydro-2H-pyran-4-yl)-2,4,12,13-tetrahydro-11H-5,7-(azenometheno)dipyrazolo[3,4-b:5′,1′-g][1]oxa[4,6,8]triazacycloundecine-13,13-d2] | 
13 |  | 4.7 | 9.4 | Cc1c2c(nn1CC1CCOCC1)OCCCn1nc(Cl)c3cnc(nc31)N2 [Example 49, 8-Chloro-3-methyl-2-((tetrahydro-2H-pyran-4-yl)methyl)-2,4,12,13-tetrahydro-11H-5,7-(azenometheno)dipyrazolo[3,4-b:5′,1′-g][1]oxa[4,6,8]triazacycloundecine] | 
